From patent US4199598A, “Method of treating noradrenaline dysfunction or for dopamine-β-hydroxylase inhibition” (Richter Gedeon Vegyeszeti Gyar Rt., priority 1976, dated 1980)

Legend:
[1] = test system: dopamine-β-hydroxylase; conditions: in words, prior art; cited from earlier work
[2] = test system: dopamine-β-hydroxylase; assay: Noradrenaline, dopamine, serotonine and 5-hydroxy-indolylacetic acid contents of cerebrum (dopamine-β-hydroxylase inhibiting effect); format: in vivo, male Wister rats; conditions: Rattus norvegicus, ip
Procedure: (§1) The dopamine-β-hydroxylase inhibiting effects of the compounds according to the invention were examined by the following tests:
(§2) The tests were performed on male Wister rats weighing 150 to 200 g. The dopamine-β-hydroxylase inhibiting effects of the compounds were evaluated by determining the change of noradrenaline, dopamine and adrenaline levels of the cerebrum, heart, spleen and adrenal gland. The serotonine and 5-hydroxy-indolyl-acetic acid levels of the cerebrum were also determined. The measurements were performed as follows:
(§3) The animals were decapitated, the cerebrum, heart, spleen and adrenal gland were removed quickly, and the organs were frozen by placing them onto a metal sheet cooled with dry ice. The frozen organs were stored for a maximum of one night at -20° C.
(§4) Noradrenaline was determined according to the method of Shellenberger et al (Anal. Biochem., Vol. 39, p. 356, 1971), with the following modifications of the basic procedure: 0.5 ml of 0.1 molar Na-K-phosphate buffer, containing 9 g/l of EDTA-Na2, were added to 0.5 ml of the eluate, and the catecholamines (noradrenaline in the examination of heart and spleen and noradrenaline and dopamine in the examination of the cerebrum) were oxidized with 0.1 ml of a 0.1 N iodine solution in 5% potassium iodide. […] Thereafter the samples were placed for 5 minutes in a drying oven heated to 100° C., and then the samples were cooled with ice water. The fluorescence of noradrenaline was measured with an OPTON spectrophotometer at wavelengths of 390 nm (excitation) and 490 nm (emission).
Determination of the noradrenaline, dopamine, serotonine and 5-hydroxy-indolylacetic acid contents of cerebrum
The brains were homogenized in 10 parts by volume of 0.4 N perchloric acid. The homogenized mixture was stored at -20° C. overnight; thereafter it was thawed and centrifuged as described above. A sample of homogenized mixture corresponding to 0.5 g of brain was removed, the pH of the sample was adjusted to 8.0±0.1 with 0.1 molar tris-buffer of the above composition, and the sample was processed as described above for the determination of the noradrenaline content of heart and spleen, with the difference that 1.5 ml of 0.05 N perchloric acid were applied as eluting agent. 0.5 ml of the eluate were applied to determine the noradrenaline and dopamine content. The measurement was performed as described above, with the difference that samples of 0.5 ml were applied for the recording of the fluorescence of noradrenaline. The residue was placed for 50 minutes into a drying oven heated to 100° C.; thereafter the sample was cooled with ice water, and the fluorescence of dopamine was recorded at wavelengths of 325 nm (excitation) and 380 nm (emission).
In a further test series the serotonine and 5-hydroxy-indolylacetic acid contents were also determined, in addition to the determination of the noradrenaline and dopamine contents, from the same sample. In this instance the brains were homogenized in 10 ml of 75% ethanol, 0.2 ml of EDTA-Na2 and 5% of ascorbic acid were added to the homogenized mixtures, and the homogenized mixtures were maintained at -20° C. overnight. The mixtures were then centrifuged as described above, and 5.0 ml samples of the supernatant were removed. The samples were diluted with equal volumes of distilled water, and poured onto ion-exchange columns of 0.5×1.5 cm dimensions, filled with buffered Amberlite CG-30 (200 to 400 mesh). The columns were washed with 5 ml of distilled water followed with 1.0 ml of 0.2 N hydrochloric acid, and the first effluent and the aqueous wash were collected for the determination of 5-hydroxy-indolylacetic acid. Elution was continued with further 1.2 ml of 0.2 N hydrochloric acid in order to remove noradrenaline, dopamine and serotonine. Samples of 0.3 ml were used for the determinations. […]

[3] = test system: dopamine-β-hydroxylase; assay: Noradrenaline content of heart (dopamine-β-hydroxylase inhibiting effect); format: in vivo, male Wister rats; conditions: Rattus norvegicus, ip, read-out: Amine level, heart NA (noradrenaline)
Procedure: as §1, §2, §3
(§5) Determination of the noradrenaline content of heart and spleen
(§6) The organs were weighed in frozen state and then homogenized in 5.0 ml of 0.4 N perchloric acid containing 0.05% of EDTA-Na2 and 0.1% of Na2 S2 O5. The homogenized mixtures were centrifuged as described above for the treatment of adrenal gland, the supernatants were decanted, and the pH was adjusted to 8.0±0.1 with a 0.1 molar tris buffer containing 20 g/l of NaOH and 25 g/l of EDTA-Na2. 100 mg of prepared Al2 O3 (Anton et al: J. Pharm. Ther., Vol. 138, p. 360, 1962) were added to the samples, and the mixtures were shaken mechanically for 20 minutes. Thereafter the Al2 O3 were washed with 2.10 ml of distilled water, and the noradrenaline was eluted with 1.0 ml of 0.05 N perchloric acid. 0.5 ml samples of the eluate were applied for the determination of noradrenaline.
as §4
(§7) In the tests disulfiram, 2,2-dipyridyl, bis(1-methyl-4-homopiperazinyl-thiocarbonyl)-disulfide, sodium diethyldithiocarbamate and N-phenyl-N'-(2-thiazolyl)-thiourea were used as reference substances. The values indicated in Table 1 are percentages in relation to the amine levels of the controls measured in the same tests (± Standard Error). The statistical calculations were performed on a TPA/i type computer, using Student's test.

[4] = test system: dopamine-β-hydroxylase; assay: Noradrenaline content of spleen (dopamine-β-hydroxylase inhibiting effect); format: in vivo, male Wister rats; conditions: Rattus norvegicus, ip, read-out: Amine level, spleen NA (noradrenaline)
Procedure: as §1, §2, §3, §5, §6, §4, §7

[5] = test system: dopamine-β-hydroxylase; assay: Adrenaline content of adrenal gland (dopamine-β-hydroxylase inhibiting effect); format: in vivo, male Wister rats; conditions: Rattus norvegicus, ip, read-out: Amine level, adrenal gland AD (adrenaline)
Procedure: as §1, §2, §3
Determination of the adrenaline content of adrenal gland
The adrenal glands were freed from fat and homogenized in 3.0 ml of ice-cold 0.4 N perchloric acid. The homogenized mixtures were centrifuged for 10 minutes at 0° C. with a speed of 3200 r.p.m. on a Janetzky K-70 type centrifuge. 0.05 ml samples were taken from the supernatant, and the adrenaline level was determined directly by the method of Laverty et al (Anal. Biochem., Vol. 22, p. 269, 1968).
as §7

[6] = in vivo; conditions: mouse, ip
[7] = rats, i.p., 4 hours, ± Standard Error, read-out: Amine level, cerebrum DA (dopamine)
[8] = rats, i.p., 4 hours, ± Standard Error, read-out: Amine level, cerebrum NA (noradrenaline)
[9] = rats, i.p., 4 hours, ± Standard Error, read-out: Amine level, cerebrum SE (serotonine)
[10] = rats, i.p., 200 mg/kg, 4 hours, ± Standard Error, read-out: Amine level, cerebrum DA (dopamine)
[11] = rats, i.p., 200 mg/kg, 4 hours, ± Standard Error, read-out: Amine level, cerebrum NA (noradrenaline)
[12] = rats, i.p., 200 mg/kg, 4 hours, ± Standard Error, read-out: Amine level, cerebrum SE (serotonine)
[13] = rats, i.p., 4 hours, ± Standard Error
[14] = rats, i.p., 200 mg/kg, 4 hours, ± Standard Error
[15] = 4 h, read-out: Amine level, cerebrum DA (dopamine)
[16] = 4 h, read-out: Amine level, cerebrum NA (noradrenaline)
[17] = 4 h, read-out: Amine level, cerebrum SE (serotonine)

NOCc1ccccc1 [Benzyloxyamine]
dopamine-β-hydroxylase inhibiting effects [1]: exert dopamine-β-hydroxylase inhibiting effects
duration of activity [1]: exert their activities for a short period

COCCNC1=C(C(=S)S)CCC1 [Compound M-1, 2-(N-methoxyethyl)-amino-cyclopent-1-ene-dithiocarboxylic acid]
response vs control in vivo at 100 mg/kg [2, 7]: 107 ± 4.7%
response vs control in vivo at 100 mg/kg [2, 8]: 63.4 ± 3.6%
response vs control in vivo at 100 mg/kg [2, 9]: 116 ± 4.7%
response vs control in vivo at 200 mg/kg [2, 10]: 122 ± 6.7%
response vs control in vivo at 200 mg/kg [2, 11]: 64.2 ± 3.4%
response vs control in vivo at 200 mg/kg [2, 12]: 107 ± 2.7%
response vs control in vivo at 200 mg/kg ([2]; rats, i.p., 200 mg/kg, 4 hours, ± Standard Error, read-out: Level, cerebrum 5-HIAA (5-hydroxy-indolylacetic acid)): 141 ± 12.3%
response vs control in vivo at 100 mg/kg [3, 13]: 106 ± 10.3%
response vs control in vivo at 200 mg/kg [3, 14]: 110 ± 7.4%
response vs control in vivo at 100 mg/kg [4, 13]: 77.1 ± 8.9%
response vs control in vivo at 200 mg/kg [4, 14]: 110 ± 14.1%
response vs control in vivo at 100 mg/kg [5, 13]: 106 ± 6.1%
response vs control in vivo at 200 mg/kg [5, 14]: 91.5 ± 4.7%
LD50 [6]: ~400 mg/kg

C=CCNC1=C(C(=S)S)CCC1 [Compound M-2, 2-(N-allyl)-amino-cyclopent-1-ene-dithiocarboxylic acid]
response vs control in vivo at 100 mg/kg [2, 7]: 108 ± 2.9%
response vs control in vivo at 100 mg/kg [2, 8]: 78.6 ± 3.3%
response vs control in vivo at 100 mg/kg [2, 9]: 118 ± 5.7%
response vs control in vivo at 200 mg/kg [2, 10]: 119 ± 7%
response vs control in vivo at 200 mg/kg [2, 11]: 71.1 ± 3.9%
response vs control in vivo at 200 mg/kg [2, 12]: 109 ± 5.9%
response vs control in vivo at 100 mg/kg [3, 13]: 81.3 ± 5.1%
response vs control in vivo at 200 mg/kg [3, 14]: 123 ± 11.9%
response vs control in vivo at 100 mg/kg [4, 13]: 74.5 ± 10.2%
response vs control in vivo at 200 mg/kg [4, 14]: 89.9 ± 11%
response vs control in vivo at 100 mg/kg [5, 13]: 103 ± 7.6%
response vs control in vivo at 200 mg/kg [5, 14]: 71.9 ± 4.7%
LD50 [6]: ~500 mg/kg

CC(C)CCNC1=C(C(=S)S)CCC1 [Compound M-3, 2-(N-isoamyl)-amino-cyclopent-1-ene-dithiocarboxylic acid]
response vs control in vivo at 100 mg/kg [2, 7]: 103 ± 4.1%
response vs control in vivo at 100 mg/kg [2, 8]: 75.2 ± 1.7%
response vs control in vivo at 100 mg/kg [2, 9]: 108 ± 5.7%
response vs control in vivo at 200 mg/kg [2, 10]: 114 ± 2.7%
response vs control in vivo at 200 mg/kg [2, 11]: 68.8 ± 2.4%
response vs control in vivo at 200 mg/kg [2, 12]: 98.2 ± 3.9%
response vs control in vivo at 100 mg/kg [3, 13]: 86.9 ± 5.9%
response vs control in vivo at 200 mg/kg [3, 14]: 131 ± 4.4%
response vs control in vivo at 100 mg/kg [4, 13]: 48.2 ± 9.5%
response vs control in vivo at 200 mg/kg [4, 14]: 135 ± 17%
response vs control in vivo at 100 mg/kg [5, 13]: 86.2 ± 4.5%
response vs control in vivo at 200 mg/kg [5, 14]: 73.5 ± 2.2%

S=C(Nc1ccccc1)Nc1nccs1 [Compound U-14624, N-phenyl-N'-(2-thiazolyl)-thiourea, reference compound]
response vs control in vivo at 200 mg/kg [2, 15]: 121%
response vs control in vivo at 200 mg/kg [2, 16]: 31.6%
response vs control in vivo at 200 mg/kg [2, 17]: 137%
response vs control in vivo at 200 mg/kg ([2]; 4 h, read-out: Level, cerebrum 5-HIAA (5-hydroxy-indolylacetic acid)): 175%
response vs control in vivo at 200 mg/kg ([3]; 4 h): 106%
response vs control in vivo at 200 mg/kg ([4]; 4 h): 111%
response vs control in vivo at 200 mg/kg ([5]; 4 h): 72%

CCN(CC)C(=S)S [DDC-Na, sodium diethyldithiocarbamate, reference compound]
response vs control in vivo at 400 mg/kg [2, 15]: 120%
response vs control in vivo at 400 mg/kg [2, 16]: 64.1%

CCN(CC)C(=S)SSC(=S)N(CC)CC [DS, bis(diethylthiocarbamoyl)-disulfide, reference compound]
response vs control in vivo at 200 mg/kg [2, 15]: 111%
response vs control in vivo at 400 mg/kg [2, 15]: 112%
response vs control in vivo at 200 mg/kg [2, 16]: 22.5%
response vs control in vivo at 400 mg/kg [2, 16]: 24.1%
response vs control in vivo at 200 mg/kg [2, 17]: 122%
response vs control in vivo at 400 mg/kg [2, 17]: 117%
response vs control in vivo at 200 mg/kg ([3]; 4 h): 98%
response vs control in vivo at 400 mg/kg ([3]; 4 h): 102%
response vs control in vivo at 200 mg/kg ([5]; 4 h): 52%
response vs control in vivo at 400 mg/kg ([5]; 4 h): 66%
dopamine-β-hydroxylase inhibiting effects [1]: strong dopamine-β-hydroxylase inhibiting effects

CCCCc1ccc(C(=O)O)nc1 [Fusaric acid, 5-butyl-picolinic acid]
dopamine-β-hydroxylase inhibiting effects [1]: strong dopamine-β-hydroxylase inhibiting effects

NNc1nncc2ccccc12 [Hydralazine, hydralazine]
dopamine-β-hydroxylase inhibiting effects [1]: possess dopamine-β-hydroxylase inhibiting effects

O=C(CO)c1coc(=O)c2c(O)cccc12 [Oosponol]
dopamine-β-hydroxylase inhibiting effects [1]: strong dopamine-β-hydroxylase inhibiting effects

CC(N)Cc1ccccc1 (stereo not drawn) [amphetamine]
dopamine-β-hydroxylase inhibiting effects [1]: possess dopamine-β-hydroxylase inhibiting effects

NNCc1ccccc1 [benzylhydrazine]
dopamine-β-hydroxylase inhibiting effects [1]: exert dopamine-β-hydroxylase inhibiting effects
duration of activity [1]: exert their activities for a short period

CCN(CC)C(=S)S [diethyl dithiocarbamate]
dopamine-β-hydroxylase inhibiting effects [1]: strong dopamine-β-hydroxylase inhibiting effects

Cn1cc[nH]c1=S [methimazol]
dopamine-β-hydroxylase inhibiting effects [1]: possess dopamine-β-hydroxylase inhibiting effects
